Entries after “also recorded” stand apart in the source; their conditions may differ.
Key:
NFAT:AP-1:DNA complex = target: T1, NFAT:AP-1:DNA complex (Homo sapiens, UniProt P01100+P05412+Q13469, C154S/C269S); assay: EMSA, NFAT:AP-1:DNA complex formation; assay type: binding; conditions: for assembly of the ternary complex: 6.25 mM compound; for inhibition of formation of the NFAT:AP-1:DNA complex: 32P end-labeled ARRE2, compound added before probe; for inhibition of NFAT:AP-1:DNA complex formation: compound in the 0-300 μM range
T1 construct: The NFAT DBD containing a His tag was cloned into the pQE vector; Fos and Jun bZIP domains (each encompassing 63 amino acids) were cloned into pETa vectors; His tag ([…] leader) (N); made in house; host or cells: E. coli Codon Plus BL21 (DE3) RIL for Fos and Jun; bacterial expression from a pQE vector for NFAT DBD
Method: (§1) EMSAs: Probe labeling: Annealed double-stranded ARRE2 was end-labeled using T4 polynucleotide kinase by incubating 50-100 ng DNA with 20 μCi 32P-γATP (Perkin Elmer) at 37° C. for 1 h followed by heat inactivation of the enzyme at 65° C. for 15′ and purification of radiolabeled ARRE2 using MicroSpin G-25 columns (GE Biosciences).
(§2) Binding reactions were set up in EMSA buffer (10 mM HEPES pH=7.5, 120 mM NaCl, 10% glycerol, 0.8 mg/mL BSA, 1 mM DTT) in the presence of complete protease inhibitor (Roche). Compounds CID 2740816 (1668 P02) and CID 5713461 (1661 N20) (Ryan Scientific) were resuspended in DMSO and incubated with 20 nM NFAT and 10 nM AP-1 for 10′ followed by addition of ˜2.5 nM radiolabeled ARRE2 probe. Reactions were then incubated for 30′ at room temperature and loaded on a 4% polyacrylamide gel (pre-run for 30-45′).

NFAT:DNA complex = target: T2, NFAT:DNA complex (Homo sapiens, UniProt Q13469); assay: EMSA, NFAT:DNA complex; assay type: binding; conditions: high concentration (6.25 mM)
T2 construct: The NFAT DBD containing a His tag was cloned into the pQE vector; His tag (MRGSHHHHHH leader) (N); made in house
T2 sequence (Q13469 with tags, fused parts or gaps): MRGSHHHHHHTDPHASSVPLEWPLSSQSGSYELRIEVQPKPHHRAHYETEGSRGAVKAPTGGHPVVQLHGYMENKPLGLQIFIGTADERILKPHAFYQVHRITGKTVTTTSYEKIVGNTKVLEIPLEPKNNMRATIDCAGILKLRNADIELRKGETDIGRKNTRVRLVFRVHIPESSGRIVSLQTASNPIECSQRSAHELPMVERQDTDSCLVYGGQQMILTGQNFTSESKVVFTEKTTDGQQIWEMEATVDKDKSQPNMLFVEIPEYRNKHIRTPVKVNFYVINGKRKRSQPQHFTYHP
Method: as §1, §2

[1] = tested on: IL-2 and TNFα production in activated CD4 T cells; assay: Intracellular cytokine FACS in restimulated CD4 T cells; assay type: cell-based, mouse; conditions: for inhibition of IL-2/TNFα production: restimulation with αCD3/αCD28 instead of PMA/ionomycin
Method: (§3) T cell activation assays: Mouse CD4 T cells were isolated using the Dynal CD4 T cell positive isolation kit (Invitrogen) and activated with 1 μg/mL αCD3/αCD28 for 48-60 h under non-polarizing or Th1-conditions (10 ng/mL IL-12 and 10 μg/mL αIL-4). CD4CD25+ T cells were depleted from purified CD4 T cells using a CD25 microbead MACS kit (Miltenyi Biotech), and CD4CD25− T cells were activated with αCD3/αCD28 in the presence of 3 ng/mL TGF[…] (iTreg-polarizing conditions).
(§4) For restimulation, T cells from primary cultures were rested for 3-4 d, washed, counted and stimulated for 4 h with 10 nM PMA and varied concentrations of ionomycin; where indicated, CsA was added to cells at a final concentration of 2 μM 20′ before activation while compounds were added 45-60′ before activation. Brefeldin A was added at 10 μg/mL for the final 2-2.5 h of stimulation. T cells were fixed with 4% paraformaldehyde, permeabilized in saponin buffer and stained for intracellular cytokines; data were collected on a FACSCalibur instrument (BD Biosciences).

CD4 T cells = assay: Cytotoxicity / live cell numbers in restimulated CD4 T cells; assay type: cell-based, mouse; conditions: for cell numbers within the live cell gate: 4 h restimulation with compound; for cytotoxicity: at the concentrations tested
Method: as §4

CD69 = CD69 upregulation in restimulated CD4 T cells; assay type: cell-based, mouse; conditions: 4 h activation period, also at high concentrations
Method: as §4

[2] = tested on: IFNγ production in 2D2 CD4 T cells; assay: IFNγ production after compound treatment during Th1 activation; assay type: cell-based, mouse; conditions: 7.8 μM during activation under Th1 conditions, compared to DMSO
Method: as §3, §4

IL-17 in CD4 T cells = assay: IL-17 levels after compound treatment during primary Th17 differentiation; assay type: cell-based, mouse
Foxp3 = assay: Treg-associated gene upregulation under iTreg-polarizing conditions (real time RT-PCR); assay type: cell-based, mouse; conditions: activation in the presence of TGFβ (iTreg polarizing)
Method: as §3
(§5) Real time RT-PCR: Total RNA was isolated from cell pellets using the RNeasy kit (Qiagen) followed by first-strand synthesis using SuperScript III (Invitrogen). Synthesized cDNA was amplified using the FastStart Universal SYBRGreen Master Mix (Roche). PCR data was collected using the StepOne Plus Real-Time PCR System (Applied Biosystems) and gene expression normalized to an endogenous GAPDH control using the ΔΔCT method; primer sequences have been described elsewhere.

EAE in C57BL/6 mice = assay: Passive transfer EAE with compound-treated 2D2 Th1 cells; assay type: in vivo, mouse
Method: EAE induction: CD4 T cells from 2D2 transgenic mice were activated with 0.2 μg/mL αCD3/αCD28 under Th1-polarizing conditions for 48-60 h in the presence of DMSO or compound as indicated. T cells were rested and expanded for 2 d followed by restimulation with 0.1 μg/mL αCD3/αCD28 for 24 h in the presence of DMSO or compound. Cells were resuspended in 1×PBS and injected intraperitoneally into female 8 wk old C57BL/6 mice, 1.5 million T cells per mouse. Mice were monitored for weight loss and development of disease symptoms using a standard clinical scale: 0, healthy; 1, flaccid tail; 2, ataxia/paresis of hind limbs; 3, paralysis of hind limbs; 4, tetraparalysis; 5, moribund or death W.

[3] = tested on: proinflammatory mediator mRNA in Th1 cells; assay: Real time RT-PCR of T cells used for EAE induction; assay type: cell-based, mouse; conditions: for IL-2 mRNA transcript / IL-24 transcript levels / IP-10 transcript levels: compared to DMSO controls
Source text: as §5

[4] = target: T3, NFAT DNA-binding domain (NFAT-DBD) (UniProt Q13469 SEQ:15-300); assay: EMSA; conditions: tags: His tag (MRGSHHHH..), pQE vector, E. coli; label: 32P 5'-end
T3 chain: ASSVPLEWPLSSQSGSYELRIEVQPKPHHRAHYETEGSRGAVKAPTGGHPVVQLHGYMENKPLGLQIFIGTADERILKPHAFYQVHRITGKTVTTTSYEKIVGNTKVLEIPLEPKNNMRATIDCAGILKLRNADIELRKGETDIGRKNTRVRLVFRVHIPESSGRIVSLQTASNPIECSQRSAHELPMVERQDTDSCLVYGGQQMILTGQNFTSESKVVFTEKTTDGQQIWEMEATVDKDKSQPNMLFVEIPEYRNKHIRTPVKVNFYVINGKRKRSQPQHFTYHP

[5] = 10 nM PMA, ionomycin 100 nM or 300 nM
[6] = 10 nM PMA/100 nM ionomycin, 4 h
[7] = Th1 cells treated with 7.8 μM compound, IP transfer
[8] = compared to 1668 P02- or DMSO-treated Th1 transfer groups

T1 sequence (P01100 with tags, fused parts or gaps C154S, one chain of several): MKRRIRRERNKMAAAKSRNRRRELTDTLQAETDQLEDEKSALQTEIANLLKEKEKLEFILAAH
T1 sequence (P05412 with tags, fused parts or gaps C269S, one chain of several): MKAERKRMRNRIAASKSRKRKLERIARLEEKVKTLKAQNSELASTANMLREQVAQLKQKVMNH

N#C/C(=N/Nc1ccc2c(c1)OCO2)C(=O)N1CCCC1 [1661 N20]
assembly of the ternary complex (NFAT:AP-1:DNA complex): almost abrogate | inhibition of formation of the NFAT:AP-1:DNA complex (NFAT:AP-1:DNA complex): modestly inhibit | inhibition of NFAT:AP-1:DNA complex formation (NFAT:AP-1:DNA complex): modest inhibition | effect on the NFAT:DNA complex (NFAT:DNA complex): unaffected; also recorded: neither compound had an inhibitory effect | reduction in MFI of IL-2 [1, 5]: ≤ 50% | reduction in MFI of TNFα [1, 5]: ≤ 50% | inhibition of IL-2 and TNFα production [1, 6]: inhibit production | inhibition of IL-2 and TNFα production ([1]; 10 nM PMA/500 nM ionomycin): inhibitory | inhibition of IL-2/TNFα production [1]: acute inhibition | cell numbers within the live cell gate (CD4 T cells): no apparent change; also recorded: unchanged | cytotoxicity (CD4 T cells): neither compound appeared to be cytotoxic | upregulation of CD69 (CD69): not affected; also recorded: unaffected | levels of IFNγ production [2]: slight decrease | IL-17 levels upon restimulation (IL-17 in CD4 T cells): remained unchanged | upregulation of Treg-associated genes, notably Foxp3 (Foxp3): did not affect | kinetics of disease development (EAE in C57BL/6 mice; [7]): clearly delayed kinetics | severity of clinical symptoms of EAE (EAE in C57BL/6 mice; [7]): reduced severity; also recorded: decreased severity | mean clinical score (EAE in C57BL/6 mice; [8]): significantly lower | percentage weight loss (EAE in C57BL/6 mice; [8]): significantly lower | IL-2 mRNA transcript [3]: highly significant reduction | IL-24 transcript levels [3]: remained unchanged | IP-10 transcript levels [3]: actually higher | GM-CSF transcript levels ([3]; relative to DMSO controls): significantly reduced | levels of IFNγ mRNA ([3]; relative to DMSO controls): significantly reduced

O=C1CCCC(=O)C1=NNc1cc(C(F)(F)F)ccc1OCC(F)(F)F [1668 P02]
assembly of the ternary complex (NFAT:AP-1:DNA complex): almost abrogate | inhibition of formation of the NFAT:AP-1:DNA complex (NFAT:AP-1:DNA complex): modestly inhibit | inhibition of NFAT:AP-1:DNA complex formation (NFAT:AP-1:DNA complex): modest inhibition | effect on the NFAT:DNA complex (NFAT:DNA complex): unaffected; also recorded: neither compound had an inhibitory effect | inhibition of IL-2 and TNFα production [1, 6]: inhibit production | inhibition of IL-2 and TNFα production ([1]; 10 nM PMA/500 nM ionomycin): to a lesser extent | inhibition of IL-2/TNFα production [1]: acute inhibition | cell numbers within the live cell gate (CD4 T cells): no apparent change; also recorded: unchanged | cytotoxicity (CD4 T cells): neither compound appeared to be cytotoxic | upregulation of CD69 (CD69): not affected; also recorded: unaffected | levels of IFNγ production [2]: slight decrease | IL-17 levels upon restimulation (IL-17 in CD4 T cells): remained unchanged | upregulation of Treg-associated genes, notably Foxp3 (Foxp3): did not affect | disease curve relative to DMSO-treated Th1 transfer group (EAE in C57BL/6 mice; Th1 cells treated with compound, IP transfer): overlapping disease curves | IL-2 mRNA transcript [3]: not statistically significant | IL-24 transcript levels [3]: remained unchanged | IP-10 transcript levels [3]: actually higher

B1: ARRE2 probe, 32P (dsDNA)
DNA 1: CCTTCTGTATGAAACAAATTTTCCTCTTTG
DNA 2: CAAAGAGGAAAATTTGTTTCATACAGAAGG
binding result [4]: binds

From patent US20140294873A1, “SMALL MOLECULE SCREEN FOR INHIBITORS OF NFAT: AP-1: DNA INTERACTIONS” (CHILDREN'S MEDICAL CENTER CORPORATION, priority 2011, published 2014)
